Test results taken from patent US20020177625A1, “Class of glaucoma drugs to enhance aqueous humor outflow and lower intra-ocular pressure” (The Regents of the University of California, a California …, priority 2001, published 2002).
Entries after “also recorded” stand apart in the source; their conditions may differ. Each block holds one compound with its values, some of them ahead of it.

How the values were obtained:
human TM cells [1] = assay: Regulatory volume decrease (RVD) of human TM cells in hypotonic medium (electronic cell sizing); format: cell-based; settings: hypotonic medium (200 mOsm), agent at 1 mM
Description: (§1) By the second method, TM cells were trypsinized briefly in Ca-free medium, then rinsed with medium containing trypsin inhibitor and suspended in Hepes MEM. Mean cell volumes were then analyzed by electronic cell sizing on a COULTER COUNTER™ radioassay (Model ZM) with channelizer (C256), using at least 50,000 cells per data point and an orifice diameter of 140 μm. Aliquots of suspended cells were diluted into Hepes MEM containing the tonicity and/or agents to be evaluated. Mean cell volumes of each suspension aliquot were followed over time, starting at 1 minute after addition of cells to the assay media. Cell suspensions were maintained at 37° C. throughout the assay period. Absolute volumes (picoliters/cell) were calculated from distribution curves of cell diameter, using a standard curve generated by polystyrene latex beads of known diameter.
In FIG. 7A, cells were exposed to isotonic medium (300 mOsm) or to hypotonic medium (200 mOsm)±1 mM DPC (diphenylamine carboxylate). Cell volume was assessed by COULTER COUNTER™ electronic cell sizing over the time course shown, using TM cells in suspension. […] Data represent means of two experiments, error values shown are SEM, n=4 (two separate RVD runs per experiment).
Data represent means of two experiments, error values shown are SEM, n=4 (two separate RVD runs per experiment).

human TM cells [2] = assay: Whole cell patch clamp ion conductances of human TM cells; format: cell-based; settings: human TM cells
Description: Further studies conducted with agents known to block Cl and K channels attenuate the swelling-activated regulatory volume decrease in TM cells and niflumic acid reduces both cell volume and intracellular [Cl] of TM cells. In these studies, human TM cells were cultured from donor eyes and used between passages three and eight. Routine whole cell patch clamp methods were used to assess conductances of TM cells in isotonic (290 mOsm) and hypotonic (230 mOsm) media, with or without NPPB, DIDS, TEA or niflumic acid. Conductances were determined from current/voltage plots, generated using a ramp protocol. […] The reversal potential observed in the presence of hypotonic medium was close to the calculated reversal potential for Cl. Switching to an external medium containing reduced Cl shifted the reversal potential toward that calculated for the low Cl medium. Treating the TM cells with the Cl channel blocker NPPB (100 μM) abolished the swelling-activated conductance in a manner reversed by subsequent washout of NPPB. […] Finally, treatment of the cells with the K channel blocker TEA (1 mM) also abolished the niflumic acid-activated TM cell conductance.
Human TM and SC cells grown to subconfluence are gently trypsinized on the day of the experiment and immediately exposed to trypsin-neutralizing solution and then allowed to settle onto standard square (22×22-mm) glass coverslips for 30 minutes before use. Routine patch clamp methods were used as described previously Barakat, A. I., et al., Circulation Research, 85: 820-828, 1999; Hamill, O. P. et al., Pflügers Archives, 391: 85-100, 1981; Mauro, T. et al., J of Invest. Dermatology, 105: 203-208, 1995; Pappone, P. A. et al., J. of Physiology, 306:377-410, 1980; Pappone, P. A. et al., J of Gen. Physiology, 106: 231-258, 1995; Pappone, P. A. et al., Amer. J. of Physiology: Cell Physiology, 264: C1014-C1019, 1993; Wilson, S. M. et al., J. of Gen. Physiology, 113: 125-138, 1999. Using the whole cell patch clamp mode, conductances were assessed for isotonic and hypotonic media. By assessing current/voltage (I/V) relationships and reversal potentials for the TM and SC cells while using specific concentrations of Cl in the pipette and bath media, the nature of the conductances observed can be determined.
Whole cell currents were measured at room temperature in a Warner recording/perfusion chamber (Warner Instrument Corp.) using standard whole-cell patch clamp techniques as described previously, Lucero, M. T. et al., J. of Gen. Physiology, 95:523-544, 1999. Thick-walled borosilicate capillaries (Sutter Instruments, Inc., Novato, Calif.) were used to manufacture pipettes with resistances of 3 to 5 MW. The voltage offset between the patch pipette and the bath solution were nulled immediately before patch formation. An agar bridge containing […] KCl was used to ground the bath solution. Voltages were recorded from a patch-clamp amplifier (AXOPATCH 200A, Axon Instruments). Data was collected on a Macintosh personal computer using Pulse+Pulsefit software (HEKA Elektronik). Whole-cell currents were recorded from single (sub confluent) cells with membrane capacitances nulled through the patch-clamp amplifier. The voltage ramp protocol included a voltage step from the holding potential to +60 mV for 40 ms followed by a ramp to −100 mV over a period of 400 ms followed by a return to the holding potential. During the protocol, voltage ramps were conducted once every 5 seconds for 10 minutes, yielding 120 traces. Conductances were computed by taking the derivative of a least-squares straight line fit to the I-V data plots using Igor Pro Software (Wavemetrics, Inc.). In cases in which the I-V plots are not linear over the entire voltage ramp (as in FIGS. 6AB), computation of the whole-cell conductance were restricted to a linear range, typically 0 to +60 mV. […]

[3] = system: perfused human anterior chambers; assay: Outflow facility of perfused human anterior chambers; settings: perfused with bumetamide
Source text: The effect is expected to be transient because after the initial cell shrinkage, the co-transporter is activated to restore volume in the TM cells and, thus, the cell shrinkage is only transient. […] Here again, the cells rapidly respond to altered volume, in this case by activating ion efflux pathways to decrease volume of the cells to normal.

Na—K—Cl co-transporter = biological target: T1, Na—K—Cl co-transporter (Homo sapiens, UniProt P55011); assay: Na—K—Cl co-transport measured as bumetamide-sensitive K influx (86Rb tracer) in human TM cell monolayers; format: cell-based
T1 construct: endogenous in cells; host or cells: cultured human trabecular meshwork (TM) cells, normal or glaucomatous donors
T1 sequence (P55011 1-1212): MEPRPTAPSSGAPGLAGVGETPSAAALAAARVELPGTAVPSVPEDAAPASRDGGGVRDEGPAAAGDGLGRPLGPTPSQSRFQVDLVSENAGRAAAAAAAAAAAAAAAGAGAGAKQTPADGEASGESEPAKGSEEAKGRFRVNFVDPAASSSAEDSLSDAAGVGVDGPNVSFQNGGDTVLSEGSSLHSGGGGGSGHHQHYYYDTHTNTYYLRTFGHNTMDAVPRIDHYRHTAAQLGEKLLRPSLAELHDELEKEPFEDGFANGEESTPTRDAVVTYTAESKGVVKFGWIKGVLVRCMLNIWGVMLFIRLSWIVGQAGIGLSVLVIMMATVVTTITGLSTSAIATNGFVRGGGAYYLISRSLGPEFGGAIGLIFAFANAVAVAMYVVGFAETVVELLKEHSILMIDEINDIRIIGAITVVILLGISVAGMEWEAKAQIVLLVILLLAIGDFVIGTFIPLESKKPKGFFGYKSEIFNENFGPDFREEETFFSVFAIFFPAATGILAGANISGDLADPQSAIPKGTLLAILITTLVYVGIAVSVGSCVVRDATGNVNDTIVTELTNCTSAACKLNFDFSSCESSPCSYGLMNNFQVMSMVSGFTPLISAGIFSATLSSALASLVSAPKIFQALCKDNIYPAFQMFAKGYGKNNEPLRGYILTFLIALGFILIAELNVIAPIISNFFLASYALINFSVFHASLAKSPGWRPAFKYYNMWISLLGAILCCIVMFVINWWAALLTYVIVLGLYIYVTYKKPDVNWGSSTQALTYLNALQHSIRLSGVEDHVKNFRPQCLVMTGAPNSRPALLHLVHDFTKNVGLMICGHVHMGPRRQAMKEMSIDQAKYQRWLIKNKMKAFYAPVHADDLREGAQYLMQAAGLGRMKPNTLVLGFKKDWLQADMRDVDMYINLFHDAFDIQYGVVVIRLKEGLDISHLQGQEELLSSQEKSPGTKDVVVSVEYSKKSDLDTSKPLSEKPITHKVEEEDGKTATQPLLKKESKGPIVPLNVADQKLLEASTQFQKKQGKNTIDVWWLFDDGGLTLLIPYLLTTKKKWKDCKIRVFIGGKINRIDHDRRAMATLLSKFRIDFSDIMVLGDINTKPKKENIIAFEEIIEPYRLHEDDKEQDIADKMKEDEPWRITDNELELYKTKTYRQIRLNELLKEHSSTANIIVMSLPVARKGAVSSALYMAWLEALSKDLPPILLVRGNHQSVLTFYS
Description: Na—K—Cl co-transport was measured as ouabain-insensitive, bumetamide-sensitive potassium influx, using ^86Rb as a tracer for potassium. […] The assay medium also contained ^86Rb (1 μCi/ml) (Dupont New England Nuclear, Boston, Mass.). The assay was terminated by rinsing the wells with ice-cold isotonic MgCl2, then extracting the contents with 0.2% sodium dodecyl sulfate (SDS), and determining the amount of radioactive contents by liquid scintillation. Osmolarities of all preincubation and assay media were verified by osmometry (Model 3W2, Advanced Instruments, Norwood, Mass.).
The cells were pretreated with Hepes-buffered minimal essential medium (MEM) ±10 μM bumetamide ±1 mM ouabain for 5 min, then assayed for 5 min in the same media plus ^86Rb. […] Data are means ±SEM, n=12.
Na—K—Cl co-transport activity of glaucomatous human TM cells was assessed as ouabain-insensitive, bumetamide-sensitive K influx, using ^86Rb as a tracer for K, as described previously. TM cells were preincubated for 5 minutes in a Hepes-buffered MEM containing 0 or 10 μM bumetamide in the presence of 1 mM ouabain, followed by a 5 minute assay in media of identical composition except that they also contained ^86Rb. […] Data are mean values ±SEM in seven normal TM cultures (donor age range, 38-68 years, n=12 in each cell culture) and in seven glaucomatous cultures (donor age range 41-75 years, n=7 in each cell culture).
Human TM cells were equilibrated in Hepes-buffered MEM for 30 minutes and then pretreated for 5 minutes in media containing 1 mM ouabain, 10 or 0 μM bumetamide, and 0.3 μM to 1 mM niflumic acid (NA). Cells were then assayed for bumetamide-sensitive K influx for 5 minutes in media identical to the pretreatment media but also containing ^86Rb (1 μCi/ml). […] Dashed line indicates control level of Na—K—Cl co-transport. Data are means ±SEM of at least 4 determinations from 3 experiments.

human TM cells [4] = assay: Intracellular volume of human TM cells (14C-urea/14C-sucrose water space or COULTER COUNTER electronic cell sizing), isotonic medium; format: cell-based; settings: for reduction in intracellular volume: human TM cells, 10 μM bumetamide, isotonic conditions; for TM cell volume: hormones and intracellular regulators acting on the co-transporter
Description: The intracellular volume of human and bovine TM cells was evaluated by two methods: 1) radioisotopic evaluation of TM monolayer intracellular water space using ^14C-urea and ^14C-sucrose as markers of total and extracellular space, respectively; and 2) electronic cell sizing of suspended TM cells, using a COULTER COUNTER™ assay (Coulter Electronics, Ltd., Hialeah, Fla.). Details of these methods have been described previously by O'Donnell (O'Donnell, M. E., supra, 1993) the entirety of which is incorporated herein by reference.
By the first method, cell monolayers were preequilibrated for 30 minutes in Hepes MEM at 37° C. in an air atmosphere, then incubated for 20 minutes in Hepes MEM containing 0 or 10 μM bumetamide, ethacrynic acid, or other agents to be tested, and finally incubated for 10 minutes in the same medium containing either ^14C-urea or ^14C-sucrose (both at 1 μCi/ml). Monolayers were then rinsed with isotonic ice-cold MgCl2 and radioactivity of SDS extracts determined by liquid scintillation. Specific activities (counts per minute/ml) of ^14C-urea and ^14C-sucrose in the assay medium were determined and used to calculate water space associated with trapped radioactivity (expressed as μl/mg protein. Intracellular volume was calculated as the difference between the water space determined for ^14C-urea (a marker for intracellular plus trapped extracellular space) and ^14C-sucrose (a marker for trapped extracellular space).
as §1
Human TM cells were exposed to isotonic medium ±niflumic acid (10 or 100 μM)±10 μM bumetamide. Cell volume was assessed by COULTER COUNTER™ electronic cell sizing over the time course shown, using TM cells in suspension. Note that niflumic acid (NA) alone decreases volume of the TM cells and that exposing the cells to NA plus bumetamide causes a further decrease in TM cell volume. Data represent means of two experiments (all conditions shown tested in both experiments).

SMILES: O=S(=O)(O)c1cc(N=C=S)ccc1C=Cc1ccc(N=C=S)cc1S(=O)(=O)O [DIDS, 4,4′-diisothiocyanostilbene-2,2′-disulfonic acid]
regulatory volume decrease (RVD) (human TM cells [1]): attenuated; also recorded: reduced | swelling-activated (hypotonic medium-induced) ion conductance (human TM cells [2]; DIDS 1 mM): does not increase; also recorded: abolished; also recorded: blocked

total K influx in TM cells (Na—K—Cl co-transporter; human TM cells, 10 μM bumetamide, 86Rb tracer): blocks a substantial portion
SMILES: CCCCNc1cc(C(=O)O)cc(S(N)(=O)=O)c1Oc1ccccc1 [bumetamide]
outflow facility [3]: sustained elevation | reduction in intracellular volume (human TM cells [4]; 30 minute exposure): 12±4% | reduction in intracellular volume (human TM cells [4]; 60 minute exposure): 25±6% | cell volume of normal and glaucomatous TM cells (human TM cells [4]; normal and glaucomatous human TM cells exposed to bumetamide): decreased

SMILES: O=C(O)c1ccccc1Nc1ccccc1 [DPC, diphenylamine carboxylate]
regulatory volume decrease (RVD) (human TM cells [1]): attenuated

SMILES: NS(=O)(=O)c1cc(C(=O)O)c(NCc2ccco2)cc1Cl [furosemide]
regulatory volume decrease (RVD) (human TM cells [1]): no effect

SMILES: NC[C@H](O)c1ccc(O)c(O)c1 [norepinephrine]
TM cell volume (human TM cells [4]): reduce

SMILES: O=C(O)c1cc([N+](=O)[O-])ccc1NCCCc1ccccc1 [NPPB]
swelling-activated (hypotonic medium-induced) ion conductance (human TM cells [2]; NPPB 100 μM): blocked; also recorded: abolished

SMILES: Nc1ncnc2c1ncn2[C@@H]1O[C@@H]2COP(=O)(O)O[C@H]2[C@H]1O [cyclic AMP]
inhibition of Na—K—Cl co-transporter of glaucomatous TM cells (Na—K—Cl co-transporter; glaucomatous human TM cells): insensitive | TM cell volume (human TM cells [4]): reduce

SMILES: CC[N+](CC)(CC)CC [TEA, tetraethylammonium]
regulatory volume decrease (RVD) (human TM cells [1]): diminished | niflumic acid-activated TM cell conductance (human TM cells [2]; niflumic acid 100 μM plus K channel blocker TEA 1 mM): abolished
